Assay results taken from BindingDB's records for doi:10.1021/jm4013906 (Bristol-Myers Squibb, 2013).

Experiment: Antagonist activity at P2Y1 receptor in platelet-enriched human plasma assessed as 10 uM ADP-induced platelet aggregation preincubated for 1 min followed by ADP induction measured at 5 mins by aggregometric analysis

| IC50 | Compound |
| --- | --- |
| > 40 µM | CC(C)(C)CN1CCC2(CC1)CN(c1ccccc1NC(=O)Nc1ccc(OC(F)(F)F)cc1)c1ccncc12 |
| 18.6 µM | O=C(Nc1ccc(OC(F)(F)F)cc1)Nc1ccccc1N1CC2(CCN(Cc3ccccc3)CC2)c2ccccc21 |
| 18.5 µM | CC(C)(C)CN1CCC2(C1)CN(c1ccccc1NC(=O)Nc1ccc(OC(F)(F)F)cc1)c1ccccc12 (stereo not drawn) |
| > 40 µM | CC(C)(C)CN1CCCC2(C1)CN(c1ccccc1NC(=O)Nc1ccc(OC(F)(F)F)cc1)c1ccccc12 (stereo not drawn) |
| 4 µM | CC(C)(C)CN1CCC2(CC1)CN(c1ccccc1NC(=O)Nc1ccc(OC(F)(F)F)cc1)c1cnccc12 |
| 6.3 µM | CC(C)(C)CN1CCC2(CC1)CCN(c1ccccc1NC(=O)Nc1ccc(OC(F)(F)F)cc1)c1ccccc12 |

Continued, compound first:

| Compound | IC50 |
| --- | --- |
| CC(C)(C)CN1CCC2(CC1)CN(c1ccccc1NC(=O)Nc1ccc(OC(F)(F)F)cc1)c1ncccc12 | > 40 µM |
| CC(C)N1CCC2(CC1)CN(c1ccccc1NC(=O)Nc1ccc(OC(F)(F)F)cc1)c1ccccc12 | 29.2 µM |
| CC(C)CN1CCC2(CC1)CN(c1ccccc1NC(=O)Nc1ccc(OC(F)(F)F)cc1)c1ccccc12 | 8.8 µM |
| CC(C)(C)CN1CCC2(CC1)CN(c1ccccc1NC(=O)Nc1ccc(OC(F)(F)F)cc1)c1cccnc12 | 15.1 µM |
| COC(=O)N1CCC2(CC1)CN(c1ccccc1NC(=O)Nc1ccc(OC(F)(F)F)cc1)c1ccccc12 | 54.2 µM |
| CC(C)(C)CN1CCC2(CC1)CN(c1ccccc1NC(=O)Nc1ccc(OC(F)(F)F)cc1)c1ccccc12 | 4.9 µM |

Experiment: Antagonist activity at P2Y1 receptor in platelet-enriched human plasma assessed as 2.5 uM ADP-induced platelet aggregation preincubated for 1 min followed by ADP induction measured at 5 mins by aggregometric analysis

| IC50 | Compound |
| --- | --- |
| > 10 µM | CN1CCN(c2ccccc2NC(=O)Nc2ccc(OC(F)(F)F)cc2)c2ccccc21 |
| 3.3 µM | O=C(Nc1ccc(OC(F)(F)F)cc1)Nc1ccccc1N1CC2(CCN(Cc3ccccc3)CC2)c2ccccc21 |
| 8.5 µM | CC1(C)CN(c2ccccc2NC(=O)Nc2ccc(OC(F)(F)F)cc2)c2ccccc21 |
| 2.2 µM | CC1(C)CCN(c2ccccc2NC(=O)Nc2ccc(OC(F)(F)F)cc2)c2ccccc21 |
| 2.4 µM | O=C(Nc1ccc(OC(F)(F)F)cc1)Nc1ccccc1N1CC2(CCCC2)c2ccccc21 |
| > 10 µM | O=C(Nc1ccc(OC(F)(F)F)cc1)Nc1ccccc1N1CC2(CCN(C(=O)OCc3ccccc3)CC2)c2ccccc21 |
| 2 µM | O=C(Nc1ccc(OC(F)(F)F)cc1)Nc1ccccc1N1CC2(CCCCC2)c2ccccc21 |
| > 10 µM | O=C(Nc1ccc(OC(F)(F)F)cc1)Nc1ccccc1N1CC2(CC2)c2ccccc21 |
| > 10 µM | CC1(C)CN(c2ccccc2NC(=O)Nc2ccc(OC(F)(F)F)cc2)c2ccccc2O1 |

More lines, now with the values behind:

| Compound | IC50 |
| --- | --- |
| COCCN1CCC2(CC1)CN(c1ccccc1NC(=O)Nc1ccc(OC(F)(F)F)cc1)c1ccccc12 | 25.4 µM |
| CC(C)N1CCC2(CC1)CN(c1ccccc1NC(=O)Nc1ccc(OC(F)(F)F)cc1)c1ccccc12 | 4.7 µM |
| CC(C)NC(=O)N1CCC2(CC1)CN(c1ccccc1NC(=O)Nc1ccc(OC(F)(F)F)cc1)c1ccccc12 | > 10 µM |
| CC(C)CN1CCC2(CC1)CN(c1ccccc1NC(=O)Nc1ccc(OC(F)(F)F)cc1)c1ccccc12 | 2.2 µM |
| CC1(C)CN(c2ncccc2NC(=O)Nc2ccc(OC(F)(F)F)cc2)c2ccccc21 | > 10 µM |
| CC1(C)CCN(c2ncccc2NC(=O)Nc2ccc(OC(F)(F)F)cc2)c2ccccc21 | 11.1 µM |
| COC(=O)N1CCC2(CC1)CN(c1ccccc1NC(=O)Nc1ccc(OC(F)(F)F)cc1)c1ccccc12 | 5.8 µM |
| O=C(Nc1ccc(OC(F)(F)F)cc1)Nc1ccccc1N1CC2(CCC2)c2ccccc21 | 4.1 µM |
| CC(C)(C)CN1CCC2(CC1)CN(c1ccccc1NC(=O)Nc1ccc(OC(F)(F)F)cc1)c1ccccc12 | 0.67 µM |
| O=C(Nc1ccc(OC(F)(F)F)cc1)Nc1ccccc1N1CCOc2ccccc21 | > 10 µM |
| CC1CCN(c2ccccc2NC(=O)Nc2ccc(OC(F)(F)F)cc2)c2ccccc21 (stereo not drawn) | > 10 µM |
| O=C(Nc1ccc(OC(F)(F)F)cc1)Nc1ccccc1N1CCCc2ccccc21 | > 10 µM |
